The results in this text go back to ChEMBL document CHEMBL5291721, “A preclinical secondary pharmacology resource illuminates target-adverse drug reaction associations of marketed drugs” (Nat Commun, 2023).

The structures appear in SMILES notation. Where only a bound is given, the exact number is not on record here.

Test [1] concerns the target Beta-2 adrenergic receptor (Homo sapiens, UniProt P07550).
For test [2], the target named is T1, Estrogen receptor (Homo sapiens, UniProt P03372).
T1 sequence (P03372 whole entry): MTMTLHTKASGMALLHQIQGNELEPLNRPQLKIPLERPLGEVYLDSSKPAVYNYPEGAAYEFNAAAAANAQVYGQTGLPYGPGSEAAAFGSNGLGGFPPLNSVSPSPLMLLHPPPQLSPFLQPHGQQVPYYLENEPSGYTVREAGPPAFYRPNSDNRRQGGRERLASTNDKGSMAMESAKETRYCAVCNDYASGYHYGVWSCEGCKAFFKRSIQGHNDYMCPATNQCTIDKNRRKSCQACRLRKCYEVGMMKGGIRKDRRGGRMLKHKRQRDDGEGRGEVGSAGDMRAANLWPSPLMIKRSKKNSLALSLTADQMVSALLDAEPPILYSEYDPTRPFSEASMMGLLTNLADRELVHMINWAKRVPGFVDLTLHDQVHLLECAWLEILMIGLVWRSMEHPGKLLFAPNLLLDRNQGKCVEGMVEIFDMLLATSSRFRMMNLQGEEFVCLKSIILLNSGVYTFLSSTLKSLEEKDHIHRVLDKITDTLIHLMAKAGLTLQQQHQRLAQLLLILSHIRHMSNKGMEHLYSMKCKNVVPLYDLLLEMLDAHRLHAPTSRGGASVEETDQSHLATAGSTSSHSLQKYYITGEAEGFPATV

Test [3] concerns the target Beta-3 adrenergic receptor (Homo sapiens, UniProt P13945).
For test [4], the target named is Glucagon receptor (Homo sapiens, UniProt P47871).
The target of test [5] is T2, Gastric inhibitory polypeptide receptor (Homo sapiens, UniProt P48546).
T2 sequence (P48546 whole entry): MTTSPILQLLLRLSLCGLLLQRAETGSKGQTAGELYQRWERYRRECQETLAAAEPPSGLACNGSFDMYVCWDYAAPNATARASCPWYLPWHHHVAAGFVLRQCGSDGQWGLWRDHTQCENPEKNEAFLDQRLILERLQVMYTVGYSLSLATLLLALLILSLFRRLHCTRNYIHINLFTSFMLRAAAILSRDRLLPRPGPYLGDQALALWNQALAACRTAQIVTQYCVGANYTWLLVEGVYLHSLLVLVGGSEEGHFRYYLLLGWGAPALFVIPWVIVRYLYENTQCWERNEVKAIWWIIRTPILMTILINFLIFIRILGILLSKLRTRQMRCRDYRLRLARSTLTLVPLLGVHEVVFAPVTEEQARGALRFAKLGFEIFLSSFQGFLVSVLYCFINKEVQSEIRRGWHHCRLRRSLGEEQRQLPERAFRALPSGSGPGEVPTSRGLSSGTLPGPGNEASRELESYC

The target in test [6] is T3, Neuropeptide Y receptor type 2 (Homo sapiens, UniProt P49146).
T3 sequence (P49146 whole entry): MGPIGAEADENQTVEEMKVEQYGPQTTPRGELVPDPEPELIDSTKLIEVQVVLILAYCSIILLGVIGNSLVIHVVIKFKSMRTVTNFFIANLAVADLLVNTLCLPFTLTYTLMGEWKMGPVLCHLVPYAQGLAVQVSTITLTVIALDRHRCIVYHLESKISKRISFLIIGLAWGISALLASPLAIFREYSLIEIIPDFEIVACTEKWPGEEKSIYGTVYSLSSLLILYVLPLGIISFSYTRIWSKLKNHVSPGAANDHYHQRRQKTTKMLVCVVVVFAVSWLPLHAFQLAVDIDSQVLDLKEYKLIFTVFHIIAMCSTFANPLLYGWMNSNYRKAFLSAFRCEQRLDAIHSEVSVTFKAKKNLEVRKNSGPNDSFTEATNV

The target of test [7] is T4, Muscarinic acetylcholine receptor M2 (Homo sapiens, UniProt P08172).
T4 sequence (P08172 whole entry): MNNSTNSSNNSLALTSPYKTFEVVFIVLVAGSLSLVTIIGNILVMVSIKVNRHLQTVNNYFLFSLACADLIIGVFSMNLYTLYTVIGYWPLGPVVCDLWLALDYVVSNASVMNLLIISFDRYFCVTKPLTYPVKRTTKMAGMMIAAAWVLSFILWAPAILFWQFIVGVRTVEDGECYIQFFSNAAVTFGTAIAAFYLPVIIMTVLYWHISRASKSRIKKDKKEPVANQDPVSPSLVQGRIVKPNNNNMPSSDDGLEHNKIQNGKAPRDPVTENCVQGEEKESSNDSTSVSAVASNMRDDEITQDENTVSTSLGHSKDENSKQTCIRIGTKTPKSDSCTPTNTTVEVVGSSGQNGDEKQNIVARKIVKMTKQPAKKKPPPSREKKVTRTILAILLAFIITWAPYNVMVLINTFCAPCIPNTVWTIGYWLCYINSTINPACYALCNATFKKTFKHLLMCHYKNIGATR

Test [8] deals with D(1A) dopamine receptor (Homo sapiens, UniProt P21728).
Test [9] deals with T5, Alpha-2B adrenergic receptor (Homo sapiens, UniProt P18089).
T5 sequence (P18089 whole entry): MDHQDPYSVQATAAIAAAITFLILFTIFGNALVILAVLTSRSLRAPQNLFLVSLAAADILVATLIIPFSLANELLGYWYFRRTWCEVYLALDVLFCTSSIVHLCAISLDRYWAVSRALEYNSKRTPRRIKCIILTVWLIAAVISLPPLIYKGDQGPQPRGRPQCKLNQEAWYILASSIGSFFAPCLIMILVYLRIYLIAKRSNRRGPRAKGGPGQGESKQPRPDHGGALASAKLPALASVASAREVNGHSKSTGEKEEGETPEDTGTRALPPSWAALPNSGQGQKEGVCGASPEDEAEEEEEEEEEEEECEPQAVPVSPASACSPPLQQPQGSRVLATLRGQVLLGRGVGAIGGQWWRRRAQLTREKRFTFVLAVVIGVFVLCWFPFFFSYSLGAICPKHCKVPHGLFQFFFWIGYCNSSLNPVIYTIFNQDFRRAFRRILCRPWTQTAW

The target of test [10] is Histamine H1 receptor (Homo sapiens, UniProt P35367).
The target of test [11] is Sodium-dependent serotonin transporter (Homo sapiens, UniProt P31645).
Further: assay procedure not described here.

Beta-2 adrenergic receptor, sequence (P07550 whole entry): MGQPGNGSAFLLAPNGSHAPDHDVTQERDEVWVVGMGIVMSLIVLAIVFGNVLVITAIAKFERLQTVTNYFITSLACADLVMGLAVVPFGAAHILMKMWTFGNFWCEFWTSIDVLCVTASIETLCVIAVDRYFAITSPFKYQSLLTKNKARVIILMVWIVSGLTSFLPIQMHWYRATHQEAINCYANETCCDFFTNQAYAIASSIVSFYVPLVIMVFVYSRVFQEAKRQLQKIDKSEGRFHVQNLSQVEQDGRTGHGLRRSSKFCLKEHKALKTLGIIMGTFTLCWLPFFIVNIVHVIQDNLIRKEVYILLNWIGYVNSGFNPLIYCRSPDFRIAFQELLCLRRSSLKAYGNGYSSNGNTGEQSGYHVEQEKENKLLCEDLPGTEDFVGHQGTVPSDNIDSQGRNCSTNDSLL
Histamine H1 receptor, sequence (P35367 whole entry): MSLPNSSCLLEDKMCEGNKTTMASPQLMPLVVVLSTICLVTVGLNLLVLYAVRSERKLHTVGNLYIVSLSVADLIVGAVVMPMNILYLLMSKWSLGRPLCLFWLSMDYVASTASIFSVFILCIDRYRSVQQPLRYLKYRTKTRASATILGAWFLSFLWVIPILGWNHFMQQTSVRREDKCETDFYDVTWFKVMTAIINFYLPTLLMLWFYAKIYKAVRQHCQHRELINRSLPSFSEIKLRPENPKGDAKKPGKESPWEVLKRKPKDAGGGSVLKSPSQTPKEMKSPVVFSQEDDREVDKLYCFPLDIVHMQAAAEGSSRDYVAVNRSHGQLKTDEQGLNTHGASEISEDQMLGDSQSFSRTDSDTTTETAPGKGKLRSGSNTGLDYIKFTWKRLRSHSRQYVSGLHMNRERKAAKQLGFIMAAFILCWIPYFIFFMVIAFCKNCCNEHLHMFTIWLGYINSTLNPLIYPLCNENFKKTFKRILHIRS
Glucagon receptor, sequence (P47871 whole entry): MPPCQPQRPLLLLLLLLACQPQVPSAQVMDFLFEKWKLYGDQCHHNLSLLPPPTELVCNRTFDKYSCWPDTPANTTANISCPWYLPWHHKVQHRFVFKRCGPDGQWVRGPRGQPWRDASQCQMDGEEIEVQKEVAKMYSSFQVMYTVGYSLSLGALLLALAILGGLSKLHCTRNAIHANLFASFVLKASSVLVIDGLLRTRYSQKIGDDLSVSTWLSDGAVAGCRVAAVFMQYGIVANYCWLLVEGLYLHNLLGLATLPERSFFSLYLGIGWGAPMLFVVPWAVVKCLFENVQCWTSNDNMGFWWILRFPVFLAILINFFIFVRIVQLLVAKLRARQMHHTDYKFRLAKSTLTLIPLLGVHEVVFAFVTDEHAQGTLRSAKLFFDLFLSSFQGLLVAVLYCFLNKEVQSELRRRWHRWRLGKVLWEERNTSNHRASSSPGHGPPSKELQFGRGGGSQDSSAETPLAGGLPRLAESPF
D(1A) dopamine receptor, sequence (P21728 whole entry): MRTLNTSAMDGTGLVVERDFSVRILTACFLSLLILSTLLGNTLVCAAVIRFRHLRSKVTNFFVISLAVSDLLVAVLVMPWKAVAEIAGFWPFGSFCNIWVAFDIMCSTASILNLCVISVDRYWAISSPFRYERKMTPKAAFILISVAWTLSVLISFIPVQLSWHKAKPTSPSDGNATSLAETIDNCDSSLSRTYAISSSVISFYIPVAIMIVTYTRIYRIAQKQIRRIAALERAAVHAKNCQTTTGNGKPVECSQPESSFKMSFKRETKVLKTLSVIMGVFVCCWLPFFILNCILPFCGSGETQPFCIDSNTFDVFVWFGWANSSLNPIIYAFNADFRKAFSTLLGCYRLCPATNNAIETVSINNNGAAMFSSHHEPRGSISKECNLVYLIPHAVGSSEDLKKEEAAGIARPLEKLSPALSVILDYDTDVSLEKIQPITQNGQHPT
Beta-3 adrenergic receptor, sequence (P13945 whole entry): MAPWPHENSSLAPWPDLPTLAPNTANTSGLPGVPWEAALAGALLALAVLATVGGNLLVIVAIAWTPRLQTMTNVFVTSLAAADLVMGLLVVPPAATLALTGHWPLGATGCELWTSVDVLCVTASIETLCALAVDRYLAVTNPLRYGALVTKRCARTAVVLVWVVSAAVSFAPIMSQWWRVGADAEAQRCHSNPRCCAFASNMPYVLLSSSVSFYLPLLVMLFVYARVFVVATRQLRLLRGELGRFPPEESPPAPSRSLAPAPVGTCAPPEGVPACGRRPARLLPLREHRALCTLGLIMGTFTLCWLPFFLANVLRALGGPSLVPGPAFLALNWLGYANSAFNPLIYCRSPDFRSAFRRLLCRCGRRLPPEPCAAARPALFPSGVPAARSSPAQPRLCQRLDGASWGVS
Sodium-dependent serotonin transporter, sequence (P31645 whole entry): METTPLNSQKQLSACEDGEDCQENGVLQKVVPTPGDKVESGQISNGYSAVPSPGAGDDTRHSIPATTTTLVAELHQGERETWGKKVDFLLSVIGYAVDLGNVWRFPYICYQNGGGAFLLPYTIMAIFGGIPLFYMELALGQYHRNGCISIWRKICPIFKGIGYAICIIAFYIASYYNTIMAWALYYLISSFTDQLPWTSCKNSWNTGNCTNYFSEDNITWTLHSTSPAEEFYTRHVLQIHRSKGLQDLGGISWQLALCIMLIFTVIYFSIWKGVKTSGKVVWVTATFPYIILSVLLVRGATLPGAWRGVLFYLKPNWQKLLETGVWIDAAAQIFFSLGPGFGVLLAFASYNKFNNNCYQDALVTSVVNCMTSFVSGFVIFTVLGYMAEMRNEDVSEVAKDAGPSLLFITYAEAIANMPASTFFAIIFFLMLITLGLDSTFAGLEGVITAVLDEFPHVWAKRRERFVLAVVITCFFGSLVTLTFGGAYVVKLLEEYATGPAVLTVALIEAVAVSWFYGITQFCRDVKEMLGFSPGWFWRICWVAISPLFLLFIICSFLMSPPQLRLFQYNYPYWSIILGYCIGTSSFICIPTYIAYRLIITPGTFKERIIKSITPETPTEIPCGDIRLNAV

Usually AC50 stands for the midpoint of the concentration-response curve, whichever way the signal moves. For the compound `CC(/C=C1\SC(=S)N(CC(=O)O)C1=O)=C\c1ccccc1`, the AC50 in [1] and in [2] was above 30 µM in each case.

As for `CC1(C)S[C@@H]2[C@H](NC(=O)[C@H](N)c3ccc(O)cc3)C(=O)N2[C@H]1C(=O)O` [AMOXICILLIN], the AC50 in [1] is above 30 µM; in [3], above 30 µM; in test [4], above 30 µM; in test [5], above 30 µM; in [6], above 30 µM; in [7], above 10 µM. Also, the AC50 in [8] was above 10 µM.

For the compound `O=C1CN2Cc3c(ccc(Cl)c3Cl)N=C2N1` [ANAGRELIDE], the AC50 in test [9] is above 10 µM; in test [1], above 10 µM; in test [2], above 30 µM; in [10] it was above 10 µM; in [11] it was above 30 µM.

As to `CNCC[C@@H](Oc1ccccc1C)c1ccccc1` [ATOMOXETINE], the AC50 was 23 µM in test [9] and above 30 µM in test [2].

Regarding `CCc1oc2ccccc2c1C(=O)c1cc(Br)c(O)c(Br)c1` [BENZBROMARONE], the AC50 in [1] is above 30 µM; in test [2], above 30 µM; in test [7], 0.0373 µM.

`C=C(C)[C@@H]1CCC(C)=C[C@H]1c1c(O)cc(CCCCC)cc1O` [CANNABIDIOL]: the half-maximal activity concentration (AC50) in test [9], in test [10] and in test [11] was above 30 µM throughout.

Consider `[H]/N=C(\N/C(=N/[H])NCCCCCCNC(=N)NC(=N)Nc1ccc(Cl)cc1)Nc1ccc(Cl)cc1` [CHLORHEXIDINE], for which the concentration at half-maximal activity (AC50) was 2.4 µM in [9]; 6.5 µM in test [1]; above 30 µM in [2]; above 10 µM in test [10]; 1 µM in [11].

As for `Clc1cccc(Cl)c1N=C1NCCN1` [CLONIDINE], the AC50 in test [3] is above 30 µM; in test [4] it was above 30 µM; in [5], above 30 µM; in [6], above 30 µM; in test [7], above 10 µM; in [8], above 10 µM.

Regarding `CN1C[C@H](C(=O)N[C@]2(C)O[C@@]3(O)[C@@H]4CCCN4C(=O)[C@H](Cc4ccccc4)N3C2=O)C[C@@H]2c3cccc4[nH]cc(c34)C[C@H]21` [DIHYDROERGOTAMINE], the concentration at half-maximal activity (AC50) is 0.26 µM in [3]; above 30 µM in test [2]; above 30 µM in test [4]; above 30 µM in [5]; above 30 µM in test [6]; above 10 µM in test [7]. Further, the concentration at half-maximal activity (AC50) in test [8] amounted to 5.47 µM.

As for `CNCC[C@H](Oc1cccc2ccccc12)c1cccs1` [DULOXETINE], the AC50 in [9] stood at 3.9 µM; in test [10] it was 8.8 µM.

Take `Nc1nc(O)c2ncn(COC(CO)CO)c2n1` [GANCICLOVIR]: the AC50 in [1] and in test [2] was above 30 µM throughout.

With `CC(=O)/N=c1/sc(S(N)(=O)=O)nn1C` [METHAZOLAMIDE], the AC50 in test [9], in test [1], in [2], in test [10] and in test [11] was above 10 µM throughout.

In test [2], `CC[C@@H](CO)NC(=O)[C@@H]1C=C2c3cccc4[nH]cc(c34)C[C@H]2N(C)C1` [METHYLERGONOVINE] showed an AC50 above 30 µM.

Take `CC(=O)Oc1ccccc1C(=O)Nc1ncc([N+](=O)[O-])s1` [NITAZOXANIDE]: the AC50 in test [9] is 8 µM; in test [1], 7.8 µM; in [2] it was above 30 µM; in [10], above 30 µM; in test [11] it was 6.3 µM.

`CNCCC=C1c2ccccc2CCc2ccccc21` [NORTRIPTYLINE]: the AC50 in test [2] is above 30 µM; in test [7] it was 0.632 µM; in test [8] it was 0.386 µM.

Turning to `CNC[C@H](O)c1cccc(O)c1` [PHENYLEPHRINE], the half-maximal activity concentration (AC50) in test [4] is above 30 µM; in test [5] it was above 30 µM; in test [10], above 10 µM; in test [6], above 30 µM; in test [11], above 10 µM; in [7], above 10 µM. In addition, the concentration at half-maximal activity (AC50) in test [8] is above 10 µM.

In the case of `O=C1NC(=O)C(c2ccccc2)(c2ccccc2)N1` [PHENYTOIN], the AC50 was above 10 µM in test [1]; above 30 µM in [3]; above 30 µM in [4]; above 30 µM in test [5]; above 30 µM in test [6].

For `CNC(=O)c1cc(Oc2ccc(NC(=O)Nc3ccc(Cl)c(C(F)(F)F)c3)c(F)c2)ccn1` [REGORAFENIB], the AC50 in test [10] and in test [11] was above 30 µM in each case.

Consider `NC(=O)c1ncn([C@@H]2O[C@H](CO)[C@@H](O)[C@H]2O)n1` [RIBAVIRIN], for which, in test [1], the AC50 is above 10 µM.

As for `O=C(Nc1c(Cl)cncc1Cl)c1ccc(OC(F)F)c(OCC2CC2)c1` [ROFLUMILAST], the half-maximal activity concentration (AC50) in [9], in [1], in test [2], in [10] and in test [11] was above 30 µM each time.

Consider `CC(C)N(CCCCOCC(=O)NS(C)(=O)=O)c1cnc(-c2ccccc2)c(-c2ccccc2)n1` [SELEXIPAG], for which the AC50 in test [9], in test [1], in test [2], in test [10] and in test [11] was above 30 µM in each case.

Take `CCCCNc1ccc(C(=O)OCCN(C)C)cc1` [TETRACAINE]: the AC50 in test [1] is above 10 µM; in test [3] it was above 30 µM; in test [4], above 30 µM; in test [5], above 30 µM; in test [6] it was above 30 µM; in test [7] it was above 10 µM. The AC50 in [8] is above 10 µM.

For `Cn1c(=O)c2[nH]cnc2n(C)c1=O` [THEOPHYLLINE], the AC50 in test [1] is above 10 µM; in [4] it was above 30 µM; in test [6], above 30 µM; in test [7], above 10 µM; in test [8] it was above 10 µM.

Take `Cc1cc(CC(=O)O)n(C)c1C(=O)c1ccc(Cl)cc1` [ZOMEPIRAC]: the AC50 in test [9], in test [10] and in test [11] was above 30 µM each time.
